The text below walks through data of PMC10910063, “Helical domain of hGBP3 cannot stimulate the second phosphate cleavage of GTP” (The Journal of Biological Chemistry, 2024).

The experiment deals with T1, hGBP1^311 (Homo sapiens, UniProt P32455).
T1 construct: gene GBP1; truncated, without the helical domain; purified as previously reported
T1 sequence (P32455 1-311): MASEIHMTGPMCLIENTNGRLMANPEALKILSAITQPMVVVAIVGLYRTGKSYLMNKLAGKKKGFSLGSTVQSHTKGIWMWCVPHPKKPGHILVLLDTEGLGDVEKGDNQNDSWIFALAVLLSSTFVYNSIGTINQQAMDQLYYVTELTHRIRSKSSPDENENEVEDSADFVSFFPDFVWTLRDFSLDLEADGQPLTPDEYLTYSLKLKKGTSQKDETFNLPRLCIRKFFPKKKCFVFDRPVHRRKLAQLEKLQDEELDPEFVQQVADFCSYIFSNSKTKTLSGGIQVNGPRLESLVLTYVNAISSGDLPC
Briefly: radiolabelled [α-32P]GTP, thin-layer chromatography. The experiment is classed as biochemical. Conditions: Tris pH 7.5, 5 mM MgCl2, 37 °C.

Regarding `Nc1nc2c(ncn2[C@@H]2O[C@H](COP(=O)(O)OP(=O)(O)OP(=O)(O)O)[C@@H](O)[C@H]2O)c(=O)[nH]1` [GTP], the “radiolabelled [α-32P]GTP, thin-layer chromatography” value is reported as “the deletion of the helical domain of hGBP1 significantly reduced GMP production”.
